# In patent publication US5567707A, “Acronycine analogues” (Adir et Compagnie, priority 1994, dated 1996):
# Read-outs that look alike come from different tables or passages of the source.
# How the values were obtained:
# [1] = tested on: HT-29 tumour cells (human colon adenocarcinoma); assay: HT-29 xenograft in hairless mice; format: in vivo, human tumour in hairless mice
# From the text: (§1) In this Example, the compounds were suspended in Tween 80, then diluted with water. The concentration of Tween is at a maximum of 1% at the strongest doses. The control animals received the carrier only.
# HT-29 tumour cells originating from a human colon adenocarcinoma (American Type Culture Collection, U.S.A.) are inoculated by the subcutaneous route into hairless female mice (Iffa Credo, France). The tumour is then amplified by successive passages of tumour fragments of 2-3 mm^3 implanted bilaterally by the subcutaneous route in the animals' flanks. […] The animals are weighed and their tumour is measured twice a week.
# The tumour volume is calculated in accordance with the following formula: [formula]
# The results are expressed as the median relative tumour volume: [formula]
# The anti-tumour activity of the compound administered is evaluated by the minimum value of the median T/C calculated at time t: [formula]
# The minimum value of this parameter is evaluated a minimum of 7 days after the last treatment in accordance with EORTC (European Organization for the […]) standards.
# (§2) The animals are treated by the i.p. route by weekly administration for 2 weeks of the compound of Example 1. D0 corresponds to the first time the tumours are measured and the first administration of compound.
# murine leukaemia L1210 = assay: Cytotoxicity for L1210 cells in culture (Microculture Tetrazolium Assay); format: cell-based; settings: Mus musculus, four doubling periods (48 hours)
# Procedure: A cell line, murine leukaemia L1210, was used. The cells are cultivated in a complete culture medium RPMI 1640, containing 10% foetal calf serum, 2 mM glutamine, 50 units/ml penicillin, […] streptomycin and 10 mM Hepes, pH: 7.4. The cells are distributed on microplates and exposed to the cytotoxic compounds for four doubling periods, that is 48 hours. The number of viable cells is then quantified by a colorimetric assay, the Microculture Tetrazolium Assay (J. Carmichael et al., Cancer Res., 47, 936-942, (1987)). The results are expressed as IC50, the concentration of cytotoxic agent that inhibits the proliferation of treated cells by 50%.
# P388 (murine leukaemia) = assay: Anti-tumour activity in vivo against line P388; design: species or system murine; B6D2F1 mice
# From the text: as §1
# Line P388 (murine leukaemia) was supplied by the National Cancer Institute (Frederick, U.S.A.). The tumour cells (10^6 cells) were inoculated on day 0 into the peritoneal cavity of female B6D2F1 mice (Iffa-Credo, France). Eight to ten mice, of a weight ranging from 18 to 20 g, were used for each experimental group. The compounds were administered via the intraperitoneal route on day 1 or once a day for 4 days (D1-4), and by the intravenous route on day 1.
# The anti-tumour activity is expressed as a T/C %: [formula]
# Table 2 indicates the anti-tumour activity achieved at the optimum doses for each scheme and administration route.
# colon 38 = assay: Anti-tumour activity in vivo against colon 38; design: species or system B6D2F1 mice; settings: for median T/C % (tumour volume on D21): D2,9, i.p.
# Procedure: as §1
# Colon 38 (supplied by NCI, Frederick, U.S.A.) was inserted in the form of fragments by the subcutaneous route (s.c.) into female B6D2F1 mice. The compounds were administered by the i.p. route on D2 and D9 and the anti-tumour activity was determined on D21 by measuring the rumour volume (T/C volume, %). [formula]
# [2] = Body weight change of hairless mice bearing HT-29 xenograft; format: in vivo; settings: 6.25 mg/kg, D0,7, i.p.
# From the text: HT-29 tumour cells originating from a human colon adenocarcinoma (American Type Culture Collection, U.S.A.) are inoculated by the subcutaneous route into hairless female mice (Iffa Credo, France). The tumour is then amplified by successive passages of tumour fragments of 2-3 mm^3 implanted bilaterally by the subcutaneous route in the animals' flanks. When the tumour has reached a size of 50 mm^3 (that is between 7 and 10 days after the graft), the animals are randomised into groups of 7 to 10 mice and treated in accordance with the protocol indicated. The animals are weighed and their tumour is measured twice a week.
# as §2
# [3] = background statement; prevented i.v. administration; cited from earlier work
# Solubility = format: physicochemical; settings: prevents i.v. testing
# [4] = J. H. Scarffe et al.; cited from earlier work
# experimental models = settings: especially against solid tumours, G. H. Svoboda et al.; cited from earlier work
# [5] = cited from earlier work
structure (smiles),measurement,setting,value
"COc1cc2c(c3c1c(=O)c1ccccc1n3C)[C@@H](OC(C)=O)[C@@H](OC(C)=O)C(C)(C)O2 (relative stereo) [Example 1, (±)-cis-1,2-diacetoxy-1,2-dihydro-acronycine]",Minimum median T/C % (day),"[1]; 6.25 mg/kg, D0,7, i.p., minimum at D32",46%
same,activity against HT-29 (in words),"[1]; i.p., weekly for 2 weeks",active against that very resistant tumour
same,IC50,murine leukaemia L1210,4.9 µM
same,T/C % (survival),"P388 (murine leukaemia); D1, i.p., optimum dose 25 mg/kg",289%
same,T/C % (survival),"P388 (murine leukaemia); D1, i.v., optimum dose 25 mg/kg",220%
same,T/C % (survival),"P388 (murine leukaemia); D1-4, i.p., optimum dose 12.5 mg/kg",172%
same,activity against P388 (in words),P388 (murine leukaemia); i.p. and i.v. routes,extremely active
same,activity against colon 38 compared with 5-fluoro-uracil (in words),colon 38; 25 mg/kg versus 5-fluoro-uracil at 80 mg/kg,as active at 25 mg/kg as 5-fluoro-uracil
same,median T/C % (tumour volume on D21),colon 38; 6.25 mg/kg,12%
same,median T/C % (tumour volume on D21),colon 38; 12.5 mg/kg,8%
same,median T/C % (tumour volume on D21),colon 38; 25 mg/kg,1%
same,activity against colon 38 (in words),colon 38; i.p.,very active
same,Δ weight (D10-D0),[2],-1.1 g
"COc1cc2c(c3c1c(=O)c1ccccc1n3C)[C@H](OC(=O)c1ccccc1)[C@@H](OC(=O)c1ccccc1)C(C)(C)O2 (relative stereo) [Example 3, (±)-trans-1,2-dibenzoyloxy-1,2-dihydro-acronycine]",IC50,murine leukaemia L1210,3.4 µM
"COc1cc2c(c3c1c(=O)c1ccccc1n3C)[C@@H](O)[C@@H](OC(=O)c1ccccc1)C(C)(C)O2 (relative stereo) [Example 5, (±)-cis-2-benzoyloxy-1-hydroxy-1,2-dihydro-acronycine]",IC50,murine leukaemia L1210,7.1 µM
same,T/C % (survival),"P388 (murine leukaemia); D1, i.p., optimum dose 12.5 mg/kg",258%
"COc1cc2c(c3c1c(=O)c1ccccc1n3C)[C@@H](OC(C)=O)[C@@H](OC(=O)c1ccccc1)C(C)(C)O2 (relative stereo) [Example 6, (±)-cis-1-acetoxy-2-benzoyloxy-1,2-dihydro-acronycine]",IC50,murine leukaemia L1210,5 µM
"COc1cc2c(c3c1c(=O)c1ccccc1n3C)[C@H]1OC(=O)O[C@H]1C(C)(C)O2 (relative stereo) [Example 7, (±)-cis-1,2-carbonyldioxy-1,2-dihydro-acronycine]",IC50,murine leukaemia L1210,0.2 µM
same,T/C % (survival),"P388 (murine leukaemia); D1, i.p., optimum dose 50 mg/kg",269%
"O=c1[nH]cc(F)c(=O)[nH]1 [5-fluoro-uracil, reference compound]",median T/C % (tumour volume on D21),colon 38; 80 mg/kg,0%
COc1cc2c(c3c1c(=O)c1ccccc1n3C)C=CC(C)(C)O2 [acronycine],solubility (in words),[3],insolubility
same,solubility (in words),Solubility,completely insoluble
same,clinical response,[4],little response
same,anti-tumour spectrum (in words),experimental models,broad spectrum of activity
same,oral bioavailability (in words),[5],poor bioavailability
same,IC50,murine leukaemia L1210,27 µM
same,T/C % (survival),"P388 (murine leukaemia); D1, i.p., optimum dose 200 mg/kg",125%
same,T/C % (survival),"P388 (murine leukaemia); D1-4, i.p., optimum dose 100 mg/kg",136%
same,activity against P388 (in words),"P388 (murine leukaemia); i.p. route, at far stronger doses",weak activity
same,median T/C % (tumour volume on D21),colon 38; 100 mg/kg,77%
same,median T/C % (tumour volume on D21),colon 38; 200 mg/kg,61%
